For 64 compounds, inhibition and IC50 results are on record in US12617777B2, “GPR84 antagonists and uses thereof” (Liminal BioSciences Limited, priority 2021, dated 2026).

In this experiment the target is T1, human GPR84 receptor (Homo sapiens, UniProt Q9NQS5).
T1 construct: host or cells: HEK293, transient transfection
The experiment in a line: Gαi biosensor BRET assay in HEK293 cells (antagonism of ZQ-16). It counts as cell-based. As to conditions: for inhibition at 2 µM: HEK293, single concentration 2 μM (designated A); for inhibition at 10 µM: HEK293, single concentration 10 μM (designated F); for IC50: HEK293 cells, antagonism of 200 nmol/L ZQ-16; for inhibition at 25 µM: HEK293, single concentration 25 μM (designated I). In outline: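 Antagonist mode: test compound 5 min at 37° C, followed by ZQ-16 agonist (200 nmol/L, 5 min, room temperature), in HEK293 cells transfected with GPR84 plus Rluc8-tagged Gαi2, GFP10-Gγ2 and Gβ1. Readout as GFP10/Rluc8 emission ratio after 5 μmol/L coelenterazine 400A, net of Rluc8-only and vehicle signal.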
A general note: BRET reads energy transfer from a luciferase to a nearby fluorophore.

T1 sequence (Q9NQS5 whole entry): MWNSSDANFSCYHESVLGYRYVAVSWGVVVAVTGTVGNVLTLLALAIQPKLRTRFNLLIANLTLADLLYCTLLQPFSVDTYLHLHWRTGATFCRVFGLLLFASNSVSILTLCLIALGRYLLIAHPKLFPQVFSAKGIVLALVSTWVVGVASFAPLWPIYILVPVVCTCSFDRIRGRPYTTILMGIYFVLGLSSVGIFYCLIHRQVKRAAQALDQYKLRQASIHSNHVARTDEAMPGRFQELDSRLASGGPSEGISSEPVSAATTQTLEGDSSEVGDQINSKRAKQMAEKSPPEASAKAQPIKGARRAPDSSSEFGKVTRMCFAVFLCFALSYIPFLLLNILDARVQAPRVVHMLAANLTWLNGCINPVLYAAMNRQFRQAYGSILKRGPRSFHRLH

By inhibition is commonly meant the drop in the measured response relative to a control, in per cent. A lower inhibition goes with little suppression. Compound `Clc1cc(C#CC2CC2)cnc1-c1cn(CC2OCC3(CCC3)O2)nn1` (stereo not drawn) [Compound I-806] yielded an inhibition at 2 µM above 75%.

For orientation: IC50 means the concentration that inhibits the measured activity by half. High values mean a need for much substance, low ones inhibition by little substance. Consider `Cc1cc(N2CC(C)(OCc3ccccn3)C2)c(F)cc1-c1cn(CC2CCCCO2)nn1` (stereo not drawn) [Compound I-731], for which the inhibition at 10 µM was above 75% and the concentration for half-maximal inhibition (IC50) lay within 300 to 1000 nM.

Regarding `COC1CCN(c2ccc(-c3cn(CC4CCCCO4)nn3)c(C)c2)CC1` (stereo not drawn) [Compound I-437], the inhibition at 10 µM was 25 to 50%.

In turn, `Cc1cc(N2CC3(CC3)C2)cnc1-c1cn(CC2CCCCO2)nn1` (stereo not drawn) [Compound I-571] came in with an inhibition at 10 µM of at most 25%.

In turn, `CN(C)c1cc(C#CC2CC2)ccc1-c1cn(CC2CCOCC2)nn1` [Compound I-200] came in with an inhibition at 10 µM of 25 to 50%.

On to `Cc1cc(N2CC(C(C)O)C2)ccc1-c1cn(CC2CCCCO2)nn1` (stereo not drawn) [Compound I-508], for which the inhibition at 10 µM is 50 to 75%.

With `CC(c1cncc(C#CC2CC2)c1)c1cn(CC2CCCCO2)nn1` (stereo not drawn) [Compound I-426], the inhibition at 10 µM was 25 to 50%.

As for `C(#CC1CC1)c1ccc(-c2cn(C[C@H]3CCCCO3)nn2)nc1` [Compound I-28], the inhibition at 25 µM was in the range of 25 to 50%.

`COC(=O)C1(C)CN(c2ccc(-c3cn(CC4CCCCO4)nn3)c(C)c2)C1` (stereo not drawn) [Compound I-409] returned an inhibition at 10 µM of 25 to 50%.

`Cc1cc(N2CC3(CN(c4cccnc4)C3)C2)ccc1-c1cn(CC2CCCCO2)nn1` (stereo not drawn) [Compound I-629] showed an inhibition at 10 µM of at most 25%.

`COC(c1cccc(C#CC2CC2)c1)c1cn(CC2CCCCO2)nn1` (stereo not drawn) [Compound I-490]: the inhibition at 10 µM was above 75% and the concentration for half-maximal inhibition (IC50) lay within 300 to 1000 nM.

As for `CS(=O)(=O)c1cc(C#CC2CC2)ccc1-c1cn(CC2CCCCO2)nn1` (stereo not drawn) [Compound I-219], the inhibition at 10 µM is at most 25%.

In the case of `O=c1oc(CC2CCCCO2)nn1Cc1ccc(C#CC2CC2)cc1` (stereo not drawn) [Compound I-19], the inhibition at 10 µM is above 75%.

In the case of `CC(c1cccc(C#CCN2CC(C)(C)C2)c1)c1cn(CC2CCCCO2)nn1` (stereo not drawn) [Compound I-425], the inhibition at 10 µM was in the range of 25 to 50%.

The compound `Cc1ccc(-c2cccc(-c3nnn(C[C@H]4CCCCO4)n3)c2)cn1` [Compound I-5] showed an inhibition at 25 µM of 25 to 50%.

The compound `Cc1cc(N2CCC(CO)CC2)ccc1-c1cn(CC2CCCCO2)nn1` (stereo not drawn) [Compound I-445] yielded an inhibition at 10 µM of 50 to 75%.

The compound `Cc1cc(N2CCN(Cc3ccccc3)CC2)ccc1-c1cn(CC2CCCCO2)nn1` (stereo not drawn) [Compound I-140] returned an inhibition at 10 µM of 25 to 50%.

Compound `CN(C)c1cc(N2CC3(COC3)C2)c(F)cc1-c1cn(CC2OCC(C)(C)CO2)nn1` [Compound I-849] came in with an inhibition at 10 µM above 75%.

In the case of `Cc1cc(C#CC2CC2)ccc1-c1cnn(CC2CCCCO2)c1C` (stereo not drawn) [Compound I-327], the inhibition at 10 µM is at most 25%.

On to `Cc1cc(C#CC2(O)CCCC2)ccc1-c1cn(CC2CCCCO2)nn1` (stereo not drawn) [Compound I-210], for which the IC50 fell in the range of 300 to 1000 nM.

`Cc1cc(C#CC2CC2)nnc1-c1cn(CC2CCCCO2)nn1` (stereo not drawn) [Compound I-433] returned an inhibition at 10 µM of at most 25%.

For the compound `CC(=O)c1cc(C#CC2CC2)ccc1-c1cn(CC2CCCCO2)nn1` (stereo not drawn) [Compound I-124], the inhibition at 10 µM was 25 to 50%.

With `Cc1cc(C#CC2CC2)ccc1-c1cn(CC2CCCCS2(=O)=O)nn1` (stereo not drawn) [Compound I-248], the inhibition at 10 µM was at most 25%.

With `CC1(CO)CN(c2cnc(-c3cn(CC4OCC5(CCC5)O4)nn3)c(Cl)c2)C1` (stereo not drawn) [Compound I-807], the inhibition at 10 µM was above 75%.

As for `Cc1cc(C#CC2CC2)ccc1-c1cn(CC23CCC(CC2)CO3)nn1` [Compound I-509], the inhibition at 2 µM was at most 25%.

Compound `O=c1oc(CC2COCCO2)nn1-c1ccc(C#CC2CC2)cc1` (stereo not drawn) [Compound I-10, 5-((1,4-dioxan-2-yl)methyl)-3-(4-(cyclopropylethynyl)phenyl)-1,3,4-oxadiazol-2(3H)-one] showed an inhibition at 25 µM of at most 25%.

Compound `Cc1ccc(C#CC2CC2)cc1Cc1cn(CC2CCCCO2)nn1` (stereo not drawn) [Compound I-299] gave an IC50 above 3000 nM.

In turn, `FC(F)(F)Cc1cc(C#CC2CC2)cnc1-c1cn(C[C@H]2CCCCO2)nn1` [Compound I-822] had an inhibition at 2 µM above 75% and an IC50 of at most 300 nM.

In turn, `CC(C)Oc1cc(C#CCN2CC(C)(C)C2)cnc1-c1cn(C[C@H]2CCCCO2)nn1` [Compound I-498] gave an inhibition at 2 µM of 50 to 75% and an IC50 of 300 to 1000 nM.

As to `O=C(O)c1cc(C#CC2CC2)ccc1-c1cn(CC2CCCCO2)nn1` (stereo not drawn) [Compound I-309], the inhibition at 10 µM was at most 25%.

The compound `Cc1cc(C#CC2CCC2)ccc1-c1cn(CC2CCCCO2)nn1` (stereo not drawn) [Compound I-540] showed an inhibition at 10 µM above 75%.

`Cc1nn(CC2CCCCO2)cc1-c1ccc(C#CC2CC2)cc1` (stereo not drawn) [Compound I-319] yielded an inhibition at 25 µM of at most 25%.

`Cc1cc(N2CCC[C@H](N(C)Cc3ccccc3)C2)ccc1-c1cn(C[C@H]2CCCCO2)nn1` (stereo in doubt) [Compound I-240] had an inhibition at 10 µM above 75%.

`Cc1ccc(C#CC2CC2)cc1C1(c2cn(CC3CCCCO3)nn2)OCCO1` (stereo not drawn) [Compound I-604] returned an inhibition at 10 µM above 75% and a half-inhibitory concentration (IC50) of 1000 to 3000 nM.

As to `Cc1cc(C#CCn2cc(C3CC3)nn2)ccc1-c1cn(CC2CCCCO2)nn1` (stereo not drawn) [Compound I-645], the inhibition at 10 µM is above 75%.

Consider `CO[C@@H](c1cn(C[C@@H]2CCCCO2)nn1)c1cc(C#CC2CC2)ccc1C` [Compound I-513], for which the inhibition at 2 µM was in the range of 25 to 50% and the 50% inhibitory concentration (IC50) was above 2000 nM.

In turn, `COC1CN(c2ccc(-c3cn(CC4CCCCO4)nn3)c(C)c2)C1` (stereo not drawn) [Compound I-507] yielded an inhibition at 10 µM of 25 to 50%.

As for `Cc1cc(N2CC(N(C)S(C)(=O)=O)C2)ccc1-c1cn(CC2CCCCO2)nn1` (stereo not drawn) [Compound I-487], the inhibition at 10 µM is at most 25%.

The compound `Cc1cc(C#CC2CC2)ccc1-c1cn(C[C@@H]2CCCCO2)nn1` [Compound I-174] yielded an IC50 above 3000 nM. This compound registered an inhibition at 5 µM (HEK293, single concentration 5 μM (designated D)) of at most 25%.

Compound `Cc1cc(C#CCNC(=O)Oc2ccccc2)ccc1-c1cn(CC2CCCCO2)nn1` (stereo not drawn) [Compound I-619] came in with an inhibition at 10 µM above 75% and a 50% inhibitory concentration (IC50) of at most 300 nM.

`Cc1cc(C#CC2CC2)ccc1-c1nnn(CC2CCCCO2)n1` (stereo not drawn) [Compound I-9]: the inhibition at 10 µM was at most 25%.

Regarding `C(#CC1CC1)c1cnc(-c2cn(CC3OCC4(CC4)CO3)nn2)c(OC2CC2)c1` [Compound I-785], the inhibition at 2 µM was above 75% and the IC50 is at most 300 nM.

In the case of `CCc1cc(C#CCN2CC(C)(C)C2)cnc1-c1cn(C[C@H]2CCCCO2)nn1` [Compound I-277], the inhibition at 10 µM was above 75%.

`Cc1cc(N2CC(C)(Nc3ccccc3)C2)ccc1-c1cn(CC2CCCCO2)nn1` (stereo not drawn) [Compound I-537, 3-methyl-1-(3-methyl-4-(1-((tetrahydro-2H-pyran-2-yl)methyl)-1H-1,2,3-triazol-4-yl)phenyl)-N-phenylazetidin-3-amine] registered an inhibition at 10 µM above 75% and an IC50 of 300 to 1000 nM.

The compound `Cc1ccc(N2CCN(Cc3ccccn3)CC2)cc1-c1cn(CC2CCCCO2)nn1` (stereo not drawn) [Compound I-564] came in with an inhibition at 10 µM of at most 25%.

Consider `CC(c1cccc(N2CC(C)(C)C2)c1)c1cn(CC2CCCCO2)nn1` (stereo not drawn) [Compound I-536], for which the inhibition at 10 µM is at most 25%.

Turning to `COC(c1cn(CC2OCC(C)(C)CO2)nn1)c1cc(C#CC2CC2)ccc1C` (stereo not drawn) [Compound I-592], the inhibition at 10 µM was in the range of 50 to 75%.

Regarding `Cc1cc(C#CC2CC2)ccc1-c1nnc(CC2CCCCO2)o1` (stereo not drawn) [Compound I-342, 2-(4-(cyclopropylethynyl)-2-methylphenyl)-5-((tetrahydro-2H-pyran-2-yl)methyl)-1,3,4-oxadiazole], the inhibition at 10 µM is at most 25%.

In turn, `CC(C)c1cc(C#CC2CC2)ccc1-c1cn(CC2CCOCC2)nn1` [Compound I-212] gave an inhibition at 10 µM of at most 25%.

The compound `COCC#Cc1ccc(-c2cn(CC3OCC(C)(C)CO3)nn2)c(N(C)C)c1` [Compound I-829] displayed an inhibition at 10 µM above 75% and a half-maximal inhibitory concentration (IC50) of at most 300 nM.

Take `Cc1cc(C#CC2CC2)ccc1-c1cn(CC2CCCCO2)nc1C` (stereo not drawn) [Compound I-326]: the inhibition at 10 µM was at most 25%.

With `Cc1cc(NC(=O)N2CCCC2)ccc1-c1cn(CC2CCCCO2)nn1` (stereo not drawn) [Compound I-110], the inhibition at 10 µM is at most 25%.

In turn, `Cc1ccc(C#CCNc2ccccc2)cc1-c1cn(CC2CCCCO2)nn1` (stereo not drawn) [Compound I-178] gave an inhibition at 10 µM of at most 25%.

`Cc1cc(C#CCn2cc(-c3ccccc3)nn2)cnc1-c1cn(CC2CCCCO2)nn1` (stereo not drawn) [Compound I-720] showed an inhibition at 10 µM above 75% and an IC50 of 300 to 1000 nM.

Compound `Cc1cc(C(=O)Nc2cc[nH]n2)ccc1-c1cn(CC2CCCCO2)nn1` (stereo not drawn) [Compound I-559] gave an inhibition at 10 µM of at most 25%.

Take `CC(C)c1cc(N2CC(C)(C)C2)cnc1-c1cn(CC2CC(C)(C)O2)nn1` (stereo not drawn) [Compound I-600]: the inhibition at 10 µM was above 75% and the IC50 was in the range of 1000 to 3000 nM.

As to `Cc1ccc(C#CC2CC2)cc1-c1nnc(CC2CCCCO2)o1` (stereo not drawn) [Compound I-343], the inhibition at 10 µM is 50 to 75%.

Turning to `Cc1cc(C#CC2CC2)ccc1-c1cn(CC2CN(C)C(=O)O2)nn1` (stereo not drawn) [Compound I-493], the inhibition at 10 µM was at most 25%.

Compound `CN(C)c1cc(N2CC(C)(CO)C2)c(F)cc1-c1cn(CC2OCC(C)(C)CO2)nn1` [Compound I-711] yielded an inhibition at 2 µM above 75% and a half-inhibitory concentration (IC50) of at most 300 nM.

For the compound `Cc1cc(C#CCNc2ccccc2)ccc1-c1cn(Cc2ccccn2)nn1` [Compound I-137], the inhibition at 10 µM was at most 25%.

`CN(C)c1cc(C#CCN2CC(C)(C)C2)c(F)cc1-c1cn(CC2OCC3(CCC3)O2)nn1` (stereo not drawn) [Compound I-821] registered an inhibition at 10 µM above 75%.

`Cc1cc(C#CC2CC2)cnc1-c1cn(CC2OCCCO2)nn1` [Compound I-414] displayed an inhibition at 10 µM of 50 to 75%.

The compound `Cc1cc(N2CC3(CCN(C)CC3)C2)ccc1-c1cn(CC2CCCCO2)nn1` (stereo not drawn) [Compound I-155] gave an inhibition at 10 µM of at most 25%.

With `Cc1cc(C#CCn2cc(C3CC3)nn2)cnc1-c1cn(CC2CCCCO2)nn1` (stereo not drawn) [Compound I-732], the inhibition at 10 µM is at most 25%.
